Data from patent US20240368163A1, “COMPOUNDS AND METHODS FOR MODULATING SPLICING” (REMIX THERAPEUTICS INC., priority 2021, published 2024).
Like-named read-outs stand apart in the source and are kept apart here.

How the values were obtained:
Format in all cases: cell-based, human
[1] = test system: HTT; assay: HiBiT protein abundance assay, HTT; settings: Table 13A, modified K562 cells
How it was run: (§1)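 Target abundance was measured as HiBiT luminescence after 24 h compound treatment of tagged K562 cells. Responses were normalized between unmodified K562 and DMSO-treated tagged cells, and IC50 taken at the 50% level of a 4PL curve.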

[2] = test system: Target C; assay: HiBiT protein abundance assay, Target C; settings: Table 13A, modified K562 cells
How it was run: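 Cells carrying the HiBiT knock-in were plated at 10000 cells/well, dosed with compound (10-point, 3-fold, 10 μM top final) and incubated 24 hours at 37 °C. Lytic reagent was then added and luminescence read. Percent response fed a 4PL fit for IC50.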

[3] = test system: MYB; assay: Splicing RT-qPCR assay, MYB mRNA canonical junction (CJ) and alternative junction (AJ); settings: for AC50: increase in AJ mRNA
How it was run: (§2)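 A673 or K562 cells were treated 24 h at 37 °C with an 11-point 3-fold dilution series (top 10 uM final, DMSO ≤0.25%). Lysates underwent one-step RT-qPCR for canonical (CJ) and alternative (AJ) junctions; Ct normalized to GAPDH, GUSB or PPIA and DMSO control via 2^(−ΔΔCt), expressed as percentage response.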

[4] = test system: MYB; assay: HiBiT protein abundance assay, MYB; settings: Table 13A, modified K562 cells
How it was run: as §1

[5] = test system: SMN2; assay: Splicing RT-qPCR panel, SMN2 canonical junction (CJ) mRNA; settings: RT-qPCR panel, canonical junction mRNA, compound concentration having 50% response in CJ decrease, read-out: SMN2 IC50 (decrease in CJ mRNA levels)
How it was run: as §2

[6] = test system: HTT; assay: Splicing RT-qPCR assay, HTT mRNA canonical junction (CJ) and alternative junction (AJ); settings: for AC50: increase in AJ mRNA
How it was run: as §2

[7] = test system: Target C; assay: Splicing RT-qPCR panel, Target C canonical junction (CJ) mRNA; settings: RT-qPCR panel, canonical junction mRNA, compound concentration having 50% response in CJ decrease, read-out: Target C IC50 (decrease in CJ mRNA levels)
How it was run: as §2

[8] = Homo sapiens, 24 h, decrease in CJ mRNA, A673 or K562 cells, 24 hours treatment, RT-qPCR, read-out: MYB CJ IC50
[9] = Homo sapiens, 24 h, A673 or K562 cells, 24 hours treatment, RT-qPCR
[10] = Homo sapiens, RT-qPCR panel, canonical junction mRNA, compound concentration having 50% response in CJ decrease, read-out: MYB IC50 (decrease in CJ mRNA levels)
[11] = Homo sapiens, 24 h, decrease in CJ mRNA, A673 or K562 cells, 24 hours treatment, RT-qPCR, read-out: HTT CJ IC50
[12] = Homo sapiens, RT-qPCR panel, canonical junction mRNA, compound concentration having 50% response in CJ decrease, read-out: HTT IC50 (decrease in CJ mRNA levels)

Row | Compound | IC50 ([1]; 24 hours) | IC50 ([2]; 24 hours) | IC50 ([3]; RT-qPCR panel, canonical junction mRNA, compound concentration having 50% response in CJ decrease, read-out: MYB IC50 (decrease in CJ mRNA levels)) | IC50 ([3]; decrease in CJ mRNA, A673 or K562 cells, 24 hours treatment, RT-qPCR, read-out: MYB CJ IC50) | IC50 ([4]; 24 hours) | IC50 [5] | IC50 ([6]; RT-qPCR panel, canonical junction mRNA, compound concentration having 50% response in CJ decrease, read-out: HTT IC50 (decrease in CJ mRNA levels)) | IC50 ([6]; decrease in CJ mRNA, A673 or K562 cells, 24 hours treatment, RT-qPCR, read-out: HTT CJ IC50) | IC50 [7] | IC50 ([1]; Homo sapiens, K562, 24 h) | IC50 ([2]; Homo sapiens, K562, 24 h) | IC50 [3, 8] | AC50 [3, 9] | IC50 [3, 10] | IC50 ([4]; Homo sapiens, K562, 24 h) | IC50 ([5]; Homo sapiens) | IC50 [6, 11] | AC50 [6, 9] | IC50 [6, 12] | IC50 ([7]; Homo sapiens)
1 | FC1(F)CC2CC(Oc3ccc(-c4ccc(-c5cn[nH]c5)c5cn[nH]c45)nn3)CC1N2 (stereo not shown) [Compound 374, 7-[6-({6,6-difluoro-8-azabicyclo[3.2.1]octan-3-yl}oxy)pyridazin-3-yl]-4-(1H-pyrazol-4-yl)-1H-indazole] | > 10 µM | > 10 µM | > 10 µM | > 10 µM | > 10 µM | > 10 µM | > 10 µM | > 10 µM | > 10 µM |  |  |  |  |  |  |  |  |  |  | 
2 | Cc1n[nH]c2c(-c3ccc(N(C)[C@@H]4C[C@H]5CC[C@@H](C4)N5)nn3)ccc(-c3cnn(C)n3)c12 [Compound 375, (1R,3S,5S)-N-methyl-N-{6-[3-methyl-4-(2-methyl-1,2,3-triazol-4-yl)-1H-indazol-7-yl]pyridazin-3-yl}-8-azabicyclo[3.2.1]octan-3-amine] |  |  |  |  |  |  |  |  |  | > 10 µM | > 10 µM | > 10 µM | > 10 µM | > 10 µM | > 10 µM | > 10 µM | > 10 µM | > 10 µM | > 10 µM | > 10 µM
3 | CC(C)(C)NC1CCN(c2ccc(-c3ccc(-n4cccn4)c4[nH]ncc34)nn2)C1 (stereo not shown) [Compound 380, N-tert-butyl-1-{6-[7-(pyrazol-1-yl)-1H-indazol-4-yl]pyridazin-3-yl}pyrrolidin-3-amine] |  |  |  |  |  |  |  |  |  | 1 to 10 µM | 1 to 10 µM | 1 to 10 µM | 1 to 10 µM | 1 to 10 µM | 1 to 10 µM | 0.1 to 1 µM | 1 to 10 µM | 1 to 10 µM | 1 to 10 µM | 1 to 10 µM
4 | CCNC1CCN(c2ccc(-c3ccc(-c4cn[nH]c4)c4ncsc34)nn2)CC1 [Compound 410, N-ethyl-1-[6-[4-(1H-pyrazol-4-yl)-1,3-benzothiazol-7-yl]pyridazin-3-yl]piperidin-4-amine] |  |  |  |  |  |  |  |  |  | 1 to 10 µM | 1 to 10 µM | 1 to 10 µM | > 10 µM | 1 to 10 µM | 1 to 10 µM | 1 to 10 µM | > 10 µM | > 10 µM | > 10 µM | > 10 µM
5 | CNCC1CCN(c2ncc(-c3ccc(-c4cn[nH]c4)c4ncsc34)nn2)C1 (stereo not shown) [Compound 411, N-methyl-1-[1-[6-[4-(1H-pyrazol-4-yl)-1,3-benzothiazol-7-yl]-1,2,4-triazin-3-yl]pyrroledin-3-yl]metha-namine] |  |  |  |  |  |  |  |  |  | > 10 µM | > 10 µM | > 10 µM | > 10 µM | > 10 µM | > 10 µM | 1 to 10 µM | 1 to 10 µM | > 10 µM | 1 to 10 µM | > 10 µM
6 | CNC1CCN(c2ncc(-c3ccc(-c4cn[nH]c4)c4ncsc34)nn2)C1 (stereo not shown) [Compound 412, N-methyl-1-[6-[4-(1H-pyrazol-4-yl)-1,3-benzothiazol-7-yl]-1,2,4-triazin-3-yl]pyrrolidin-3-amine] |  |  |  |  |  |  |  |  |  | 1 to 10 µM | 1 to 10 µM | > 10 µM | > 10 µM | > 10 µM | 1 to 10 µM | 0.1 to 1 µM | 0.1 to 1 µM | 1 to 10 µM | 0.1 to 1 µM | > 10 µM
7 | CN(C)C1CCN(c2ncc(-c3ccc(-c4cn[nH]c4)c4ncsc34)nn2)C1 (stereo not shown) [Compound 413] |  |  |  |  |  |  |  |  |  | 0.1 to 1 µM | 0.1 to 1 µM | 0.1 to 1 µM | 0.1 to 1 µM | 0.1 to 1 µM | 0.1 to 1 µM | 0.1 to 1 µM | 0.1 to 1 µM | 0.1 to 1 µM | 0.1 to 1 µM | 0.1 to 1 µM
8 | c1nc2c(-c3cn[nH]c3)ccc(-c3cnc(N4CCNC(C5CC5)C4)nn3)c2s1 (stereo not shown) [Compound 414] |  |  |  |  |  |  |  |  |  | 0.1 to 1 µM | 0.1 to 1 µM | 1 to 10 µM | > 10 µM | 1 to 10 µM | 1 to 10 µM | 1 to 10 µM | 0.1 to 1 µM | 0.1 to 1 µM | 0.1 to 1 µM | 1 to 10 µM
9 | c1nc2c(-c3cn[nH]c3)ccc(-c3cnc(N4CCC(NC5CC5)C4)nn3)c2s1 (stereo not shown) [Compound 416, N-cyclopropyl-1-[6-[4-(1H-pyrazol-4-yl)-1,3-benzothiazol-7-yl]-1,2,4-triazin-3-yl]py-rrolidin-3-amine] |  |  |  |  |  |  |  |  |  | 1 to 10 µM | 1 to 10 µM | 1 to 10 µM | > 10 µM | 1 to 10 µM | 1 to 10 µM | 1 to 10 µM | 1 to 10 µM | 1 to 10 µM | 1 to 10 µM | > 10 µM
10 | c1nc2c(-c3cn[nH]c3)ccc(-c3ccc(N4CCNC(C5CC5)C4)nn3)c2s1 (stereo not shown) [Compound 417] |  |  |  |  |  |  |  |  |  | 0.1 to 1 µM | 1 to 10 µM | 1 to 10 µM | 1 to 10 µM | 1 to 10 µM | > 10 µM | 0.1 to 1 µM | 1 to 10 µM | > 10 µM | 1 to 10 µM | > 10 µM
11 | CN(c1ncc(-c2ccc(-c3cn[nH]c3)c3ncsc23)nn1)[C@@H]1C[C@H]2CC[C@@H](C1)N2 [Compound 420] |  |  |  |  |  |  |  |  |  | < 0.1 µM | < 0.1 µM | 0.1 to 1 µM | 0.1 to 1 µM | 0.1 to 1 µM | 0.1 to 1 µM | 0.1 to 1 µM |  | < 0.1 µM | < 0.1 µM | 0.1 to 1 µM
12 | CN(c1ncc(-c2ccc(-c3cn[nH]c3)c3ncsc23)nn1)C1C[C@H]2CCC[C@H](C1)N2 (stereo partly shown) [Compound 421] |  |  |  |  |  |  |  |  |  | < 0.1 µM | < 0.1 µM | 0.1 to 1 µM | 0.1 to 1 µM | 0.1 to 1 µM | 0.1 to 1 µM | < 0.1 µM |  | < 0.1 µM | < 0.1 µM | < 0.1 µM
13 | c1nc2c(-c3cn[nH]c3)ccc(-c3cnc(N[C@@H]4C[C@H]5CC[C@@H](C4)N5)nn3)c2s1 [Compound 422] |  |  |  |  |  |  |  |  |  | 0.1 to 1 µM | 0.1 to 1 µM | 0.1 to 1 µM | 1 to 10 µM | 0.1 to 1 µM | 0.1 to 1 µM | 0.1 to 1 µM |  | 0.1 to 1 µM | < 0.1 µM | 0.1 to 1 µM
14 | CN(c1ncc(-c2ccc(-c3cn[nH]c3)c3ncsc23)nn1)[C@H]1C[C@]2(C)CC[C@](C)(C1)N2 [Compound 424, (1S,5R)—N,1,5-trimethyl-N-[6-[4-(1H-pyrazol-4-yl)-1,3-benzothiazol-7-yl]-1,2,4-triazin-3-yl]-8-azabicyclo [3.2.1] octan-3-amine] |  |  |  |  |  |  |  |  |  | < 0.1 µM | < 0.1 µM | 0.1 to 1 µM | 0.1 to 1 µM | 0.1 to 1 µM | 0.1 to 1 µM | 0.1 to 1 µM |  | < 0.1 µM | < 0.1 µM | < 0.1 µM
15 | CN(c1ncc(-c2ccc(-c3cn[nH]c3)c3ncsc23)nn1)[C@@H]1C[C@]2(C)CC[C@](C)(C1)N2 [Compound 425, (1S,5R)—N,1,5-trimethyl-N-[6-[4-(1H-pyrazol-4-yl)-1,3-benzothiazol-7-yl]-1,2,4-triazin-3-yl]-8-azabicyclo [3.2.1] octan-3-amine] |  |  |  |  |  |  |  |  |  | 0.1 to 1 µM | 0.1 to 1 µM | 1 to 10 µM | > 10 µM | 1 to 10 µM | 1 to 10 µM | 1 to 10 µM | 0.1 to 1 µM | 0.1 to 1 µM | 0.1 to 1 µM | 0.1 to 1 µM
16 | CN(c1ncc(-c2ccc(-c3cn[nH]c3)c3ncsc23)nn1)C1CC2CCC(C1)N2 (stereo not shown) [Compound 443] |  |  |  |  |  |  |  |  |  | < 0.1 µM | < 0.1 µM |  |  | 1 to 10 µM | 0.1 to 1 µM | 0.1 to 1 µM |  |  | < 0.1 µM | 0.1 to 1 µM
